Source: US11958869B2, “Ruthenium arene Schiff-base complexes and uses thereof” (CITY UNIVERSITY OF HONG KONG, priority 2021, dated 2024)
Like-named read-outs stand apart in the source and are kept apart here.

Tests used:
Assay type in all cases: cell-based
MDA-MB-231 mammospheres [1] = test: Viability of MDA-MB-231 mammospheres, Alamar Blue assay (Table 1); details: for IC50: read-out: IC50 (μM), growth of MDA-MB-231 mammospheres
[2] = test system: MDA-MB-231 secondary mammospheres; test: Secondary mammosphere formation (self-renewal), MDA-MB-231; details: for Number of MDA-MB-231 secondary mammospheres / Size (μm) of MDA-MB-231 secondary mammospheres: from drug-treated primary mammospheres, grown in drug-free conditions for 7 days; for propensity to form secondary mammospheres: single cells from drug-treated primary mammospheres, 7 days drug-free, FIG. 2
Method: To this purpose, drug-treated primary MDA-MB-231 mammospheres were dissociated into single cell suspensions and incubated for 7 days in ultralow attachment drug-free conditions.

MCF-7 mammospheres = test: Mammosphere formation assay, MCF-7; details: for Number of MCF-7 mammospheres / Size (μm) of MCF-7 mammospheres: primary mammospheres grown 96 hr, incubated with compound 72 hrs, >50 μm analyzed; for decrease in number of MCF-7 mammospheres / decrease in size of MCF-7 mammospheres: versus control
Method: (§1) Since the breast cancer stem cells formed a mass of colonies in the form of floating spheres without attaching to a surface of a plate, the size and number of the masses were observed by a mammosphere formation assay to determine a cancer-stem-cell-specific effect.
(§2) Single-cell suspension was cultured at a density of 1,000 to 15,000 cells/well using a MammoCult™ Human Medium kit (Stemcell Technologies Inc Vancouver, CA), and the spherical cells were counted and observed under a microscope.
(§3) The mammosphere assay is based on the concept that when cells proliferate in three-dimensional spheroid structures, only cancer cells with stem-like characteristics are able to evade anoikis.

MCF-7 = test: cells; details: for IC50: read-out: IC50 (μM) MCF-7 72 h
Method: (§4) Cells were seeded in 96-well plates and maintained for 14-16 hours, then were treated with dimethylsulfoxide (DMSO) or test compound at various concentrations (i.e., 0.312, 1.25, 5, 20 μM) for 72 hrs. The cells were then washed with phosphate buffer saline (PBS) twice, added a medium containing 3-(4,5-dimethylthiazol-2-yl)-2,5-diphenyltetrazolium bromide (MTT) at a final concentration of 0.5 mg/mL, and incubated for 4 hr at 37° C. in a humidified incubator containing 5% CO2 in air. Cells having functional succinate dehydrogenase of mitochondria would convert MTT to formazan. Then, the medium was replaced with 100 μL of DMSO for 30 min at room temperature, and the 96-well plate was read by an ELISA reader at 550 nm to get the absorbance density values. The IC50 values of death cell lines were calculated accordingly.
(§5) The Ru^TEN complexes of Example 1 were evaluated for their anti-proliferative properties in two breast cancer cell lines, namely, MCF-7 and MDA-MB-231 cells via MTT assay. […] MCF-7 is a chemotherapy-responsive breast cancer cell line of luminal subtype with high expression of estrogen receptor (ER), whereas MDA-MB-231 is a triple negative breast cancer (TNBC) or basal-like breast cancer cell ine. TNBC is defined as highly invasive cancer that lacks expression of ER, progesterone receptor (PR) and Her-2; it has one of the worst outcomes among all subtypes of breast cancers. The aggressive nature of TNBC may be related to the presence of breast cancer stem cells within the tumor; therefore, MDA-MB-231 cells are often used as a model of mammary cancer stem cells.
(§6) The cytotoxicity of Ru^TEN complexes of Example 1 was compared to that of cisplatin or oxaliplatin, which were known to induce their anticancer effects by the mode of action different from ER stress. Three CSC-selective organic compounds, salinomycin, etoposide and abamectin, were also used for comparison. Briefly, MCF-7 and MDA-MB-231 cells were respectively treated with increasing concentrations of compounds of interest for 24 or 72 hrs and then the cell viability was measured.

MDA-MB-231 = test: Anti-proliferative activity (MTT assay), MDA-MB-231
Method: as §4, §5, §6

[3] = test system: ALDHbright subpopulation of MDA-MB-231 cells; test: ALDEFLUOR assay (ALDH activity); details: versus control, FIG. 3
Method: The cells were stained with […] bodipy-aminoacetaldehyde (BAAA), and then cultured at 37° C. for 45 minutes. An ALDH1 inhibitor, diethyl aminobenzaldehyde (DEAB), was used as the negative control. The stained cells were assayed using BD FACS Aria III. In this case, the positive fluorescent ALDH1-expressed cells (ALDH+) were detected in a green fluorescent channel (520 to 540 nm).
While CD44+/CD24−/low phenotype has often been associated with breast CSC/progenitor cell features, yet there is no correlation between the presence of CD44+/CD24−/low cells and clinical outcome and formation of distant metastases. It is the presence of aldehyde dehydrogenase (ALDH) bright cells which separates highly tumorigenic CD44+/CD24−/low/ALDHbright population from non-tumorigenic cells. Unlike CD44+/CD24−/low, ALDH is a predictor of metastasis and is associated with a poor clinical outcome. The main role of ALDH enzymes is the detoxification of aldehydes generated in various metabolic processes into carboxylic acids. However, several ALDH isoforms are involved in retinoic acid signaling and this particular function was linked to the “stemness” of CSCs. The functional activity of ALDHs can be accurately determined by ascertaining the cellular conversion of […] (BAAA) into a fluorescent molecule BODIPY-aminoacetate (BAA). ATP-binding cassette (ABC)-transporter inhibitors in the assay buffer prevent the efflux of BAA from the cells, resulting in the accumulation of BAA in cytoplasm.

MDA-MB-231 mammospheres [4] = test: Mammosphere formation assay, MDA-MB-231 primary; details: for Number of MDA-MB-231 mammospheres / Size (μm) of MDA-MB-231 mammospheres: primary mammospheres grown 96 hr, incubated with compound 72 hrs, >50 μm analyzed; for decrease in number of MDA-MB-231 mammospheres / decrease in size of MDA-MB-231 mammospheres: versus control
Method: as §1, §2, §3

MDA-MB-231 mammospheres [5] = test: Cytotoxicity in MDA-MB-231 mammospheres (Table 2); details: read-out: IC50 (μM) MDA-MB-231 mammospheres 72 h
MDA-MB-231 mammospheres [6] = test: Invasion / dispersion of spheroids into 3D collagen; details: cells incubated with compound 72 hr, FIG. 4
Description: CSCs are associated with highly invasive phenotype and it is believed that this subset of cancer cells gives rise to metastases. In order to monitor the dissemination of MCF-7 and MDA-MB-231 breast cancer spheroids, the spheroids were embedded into three-dimensional (3D) collagen scaffold using Aim Biotech 3D cell culture chips. Collagen with spheroids was introduced into the central region of the microfluidic system where it polymerized via thermal cross-linking. Cell culture media was introduced into media channels forcing spheroids to move through collagen towards the media.
Thus, whether Ru^TEN complexes and salinomycin affected the invasive properties of MDA-MB-231 spheroids was then investigated. To this purpose, MDA-MB-231 monolayer cells were incubated with compounds of interest (e.g., Ru^TEN complexes of Examplel or salinomycin) for 72 hr, then the delamination was allowed to proceed for over 28 hr. Results are depicted in FIG. 4.

[7] = 24 h, MTT, read-out: IC50 (μM) MDA-MB-231 24 h
[8] = 72 h, MTT, read-out: IC50 (μM) MDA-MB-231 72 h

Row | Molecule | viability of MDA-MB-231 mammospheres (MDA-MB-231 mammospheres [1]) | Number of MDA-MB-231 secondary mammospheres [2] | Size (μm) of MDA-MB-231 secondary mammospheres [2] [μm] | inhibition of mammosphere growth, MCF-7 (MCF-7 mammospheres) | Number of MCF-7 mammospheres (MCF-7 mammospheres) | Size (μm) of MCF-7 mammospheres (MCF-7 mammospheres) [μm] | IC50 (MCF-7; 72 h, MTT) [µM] | IC50 (MDA-MB-231; [7]) [µM] | IC50 (MDA-MB-231; [8]) [µM] | reduction of ALDHbright sub-population [3] | inhibition of mammosphere growth, MDA-MB-231 (MDA-MB-231 mammospheres [4]) | Number of MDA-MB-231 mammospheres (MDA-MB-231 mammospheres [4]) | Size (μm) of MDA-MB-231 mammospheres (MDA-MB-231 mammospheres [4]) [μm] | IC50 (MDA-MB-231 mammospheres [5]; 72 h) [µM] | decrease in number of MCF-7 mammospheres (MCF-7 mammospheres) | decrease in size of MCF-7 mammospheres (MCF-7 mammospheres) | decrease in number of MDA-MB-231 mammospheres (MDA-MB-231 mammospheres [4]) | decrease in size of MDA-MB-231 mammospheres (MDA-MB-231 mammospheres [4]) | dispersion of cells into collagen after 4 hr (MDA-MB-231 mammospheres [6]) | dispersion of cells into collagen after 28 hr / entire incubation period (MDA-MB-231 mammospheres [6]) | further results
1 | N.N.[Cl][Pt][Cl] [Cisplatin, cisplatin] | did not affect the viability | 67 ± 20 | 103 ± 30 | did not show any potency in inhibiting mammosphere growth | 273 ± 108 | 106 ± 14 | 22 ± 7 | 268 ± 78 | 27 ± 8 | did not affect ALDHbright cells | did not show any potency in inhibiting mammosphere growth | 136 ± 44 | 95 ± 25 | > 40 |  |  |  |  |  |  | antiproliferative activity, MCF-7 (MCF-7; MTT): only moderately active; antiproliferative activity, MDA-MB-231 (MDA-MB-231; MTT): only moderately active
2 | COc1cc([C@@H]2c3cc4c(cc3[C@@H](O[C@@H]3O[C@@H]5CO[C@@H](C)O[C@H]5[C@H](O)[C@H]3O)[C@H]3COC(=O)[C@H]23)OCO4)cc(OC)c1O [Etoposide, etoposide] |  | 73 ± 22 | 63 ± 4 |  | 237 ± 11 | 135 ± 6 |  |  |  | 52% |  | 107 ± 37 | 123 ± 20 |  | 10-15% | did not affect the size | 10-15% | did not affect the size |  |  | IC50 (MCF-7; Homo sapiens, MCF7, 72 h): 0.79 ± 0.21 µM; IC50 (MDA-MB-231; Homo sapiens, MDA-MB-231, 24 h, read-out: IC50 (μM) MDA-MB-231 24 h): > 1000 µM; IC50 (MDA-MB-231; Homo sapiens, MDA-MB-231, 72 h, read-out: IC50 (μM) MDA-MB-231 72 h): 6.4 ± 1.2 µM; IC50 (MDA-MB-231 mammospheres [5]; Homo sapiens, MDA-MB-231, 72 h): > 40 µM
3 | O=C1[O][Pt]2([NH][C@@H]3CCCC[C@H]3[NH]2)[O]C1=O [Oxaliplatin, oxaliplatin] | did not affect the viability | 122 ± 10 | 86 ± 14 | did not show any potency in inhibiting mammosphere growth | 274 ± 93 | 107 ± 17 | 1.1 ± 0.2 | 348 ± 78 | 4.6 ± 1 |  | did not show any potency in inhibiting mammosphere growth | 144 ± 50 | 99 ± 27 | > 40 |  |  |  |  |  |  | 
4 | COc1ccc([N+]2=Cc3ccc4ccccc4[n+]3[Ru-]2[Cl])cc1.Cc1c(C)c(C)c(C)c(C)c1C.[Cl-] [Ru^TEN2, [(η6-hexamethylbenzene)RuCl(4-methoxv-N-(2-quinolinyl-methylene)-aniline)]Cl] |  | 186 ± 45 | 85 ± 15 |  | 255 ± 175 | 114 ± 24 | 4.1 ± 0.9 | 10 ± 1 | 2.2 ± 0.3 |  | did not inhibit mammosphere growth | 141 ± 41 | 98 ± 18 | > 40 |  |  |  |  | did not exhibit significant dispersion | only slight dispersion | IC50 (MDA-MB-231 mammospheres [1]): > 20 µM; propensity to form secondary mammospheres [2]: only slight changes in size and number of mammospheres
5 | Cc1c(C)c(C)c(C)c(C)c1C.Clc1cccc([N+]2=Cc3ccc4ccccc4[n+]3[Ru-]2[Cl])c1.[Cl-] [Ru^TEN4, [(η6-Hexamethylbenzene)RuCl(3-chloro-N-(2-quinolinylmethylene)aniline)]Cl] |  | 91 ± 33 | 70 ± 6 |  | 236 ± 88 | 105 ± 18 | 2.5 ± 0.7 | 9.2 ± 1.3 | 1.4 ± 0.3 |  |  | 118 ± 17 | 95 ± 37 | 7.2 ± 1.8 | 10% | 17% | 17% | 10% | did not exhibit significant dispersion | only slight dispersion | IC50 (MDA-MB-231 mammospheres [1]): 11 µM; propensity to form secondary mammospheres [2]: drastically reduced propensity to form secondary mammospheres
6 | abamectin |  |  |  |  | 147 ± 33 | 77 ± 13 | 7 ± 2.2 | 18 ± 6 | 6.4 ± 2.3 |  |  | 4 ± 1 | 76 ± 8 | 4 ± 0.5 |  |  |  |  |  |  | 
